US12589104B2, “Thiosaccharides for use in treating coronavirus infection” (priority 2020, dated 2026)

Target: SARS-CoV-2 RBD^N501Y binding to ACE2 (Severe acute respiratory syndrome coronavirus 2, UniProt P0DTC2, N501Y)

**Q.** With `NCCS` [Cysteamine] as the compound, how does the “inhibition of binding of RBD^N501Y to ACE2” value read?
**A.** potently inhibited
